Source: publication PMC9320886, “Daily Intraperitoneal Administration of Rosiglitazone Does Not Improve Lung Function or Alveolarization in Preterm Rabbits Exposed to Hyperoxia” (Pharmaceutics, 2022)
Where two headings read alike, the source gives them in different places.

What was measured:
[1] = lung tissue binding by equilibrium dialysis; type: in vitro ADME; details: preterm rabbit lung homogenate, 4 h, 37 °C
Procedure: In vitro lung tissue binding was also determined by equilibrium dialysis as described above. Preterm rabbit lungs (New Zealand White, BIOIVT) were homogenized using a Precellys tissue homogenizer (Bertin instruments, Montigny-le-Bretonneux, France). Precellys lysing vials (CK28-R, Bertin instruments) were filled with lung and buffer according to the following proportion: 1 g of tissue and 5 mL of ice-cold PBS (dilution 1:6). At the end of the homogenization process, a pool of lung homogenate was prepared mixing equal amount of homogenate from three different donors. Test compounds and the positive control were diluted in the pooled lung homogenate to a final concentration of […] and then dispensed into the red chamber of the RED device inserts. PBS was dispensed into the other side. Upon completion of 4 h of incubation (37 °C under shaking), equal aliquots were removed from each chamber and matrix matched with even volumes of lung homogenate or buffer for LC-MS/MS analyses.
Free and Bound percentages of the compounds were calculated as follows:(3) %Free=Area buffer sample/Area lung homogenate sample×100 (4) % Bound=100−%Free

[2] = plasma protein binding by equilibrium dialysis; type: in vitro ADME; design: fraction unbound at 4 h: dose or concentration left out as unconfirmed; details: 37 °C
Procedure: In vitro plasma protein binding was determined in preterm rabbit plasma (New Zealand White Pooled Gender, BIOIVT, Hicksville, NY, USA) by equilibrium dialysis using Thermo Fisher Scientific Pierce RED rapid equilibrium dialysis devices (Device Inserts 8K MWCO, Thermo Fisher Scientific, Waltham, MA, USA). The assay was performed using a Tecan Evoware robotic system (Männedorf, Switzerland). Test compounds and the positive control were diluted in the pooled plasma (three donors) to a final concentration of […] and then dispensed into the red chamber of the RED device inserts. Phosphate-Buffered Saline (PBS, from Merck KGaA, Darmstadt, Germany) was dispensed into the other side. Upon completion of 4 h of incubation (37 °C under shaking), equal aliquots were removed from each chamber and matrix matched with even volumes of plasma or buffer for LC-MS/MS analyses.
Free and Bound percentages of the compounds were calculated as follows:(1) %Free=Area buffer sample/Area plasma sample×100 (2) % Bound=100−%Free

Caco-2 cell monolayers = assay: Caco-2 permeability assay; type: in vitro ADME
Procedure: (§1) Caco-2 cells were purchased from ReadyCell (Barcelona, Spain). The cells arrived already seeded and differentiated (21-days) in 96-well plates (CacoReady 96-well kits, ReadyCell). Cells were maintained in a cell culture medium: Dulbecco’s modified Eagle’s medium (DMEM) 1 g/L glucose containing 10% fetal bovine serum, 1% L-glutamine 200 mM, and 1% penicillin (10,000 U/mL)–streptomycin (10 mg/mL), all from Merck KGaA. The buffer used in the assay was Hanks Balanced Salt Solution (HBSS, Merck). Control compounds were: sulpiride (low permeability control), metoprolol (high permeability control), talinolol (P-glycoprotein transport (Pgp) substrate control), and GF120918 (Elacridar, Pgp inhibitor), all purchased from Merck KGaA.
(§2) The day of the experiment, the integrity of the cell monolayers was assessed before and after the assay by measuring the transepithelial electrical resistance (TEER). The permeability of the compounds across the cell monolayer was determined by measuring their transport in both directions: apical to basolateral (A → B) and basolateral to apical (B → A) in the absence and presence of Elacridar (a known P-gp inhibitor). The donor working solution was prepared by dilution of the DMSO stock of the test compound or positive control with HBSS (pH 7.4) to 10 µM. For A → B directional transport, the donor working solution (with test compound or positive control, with or without P-gp inhibitor) was added to the apical (A) and HBSS was added to the basolateral (B) compartment. For B → A directional transport, the donor working solution (with positive control or test compound […], with or without P-gp inhibitor) was added to the basolateral (B) and HBSS was added to the apical (A) compartment. The assay was performed with a Hamilton Star Lab robotic system. Samples were collected at t0 and 2 h after incubation (5% CO2, 95% relative humidity, 37 °C) for LC-MS/MS analyses.
(§3) Apparent permeability (Papp) was calculated with the following equation: (5) Papp(cm/sec)=(Vr/C0)×(1/A)×(Cr(t)/t) where Vr is the volume of the solution in the receiving compartment (mL); C0 is the initial test compound concentration in the donor compartment (expressed as area ratio); A is the membrane surface area (0.14 cm^2); Cr (t) is the measured concentration of the receiver well at time t120 (expressed as area ratio); and t is time of incubation (sec).

human PPARγ = target: T1, human PPARγ (Homo sapiens, UniProt P37231); assay: human PPARγ nuclear reporter assay (luciferase); details: reporter cells incubated 24 h, luminescence
T1 sequence (P37231 1-505): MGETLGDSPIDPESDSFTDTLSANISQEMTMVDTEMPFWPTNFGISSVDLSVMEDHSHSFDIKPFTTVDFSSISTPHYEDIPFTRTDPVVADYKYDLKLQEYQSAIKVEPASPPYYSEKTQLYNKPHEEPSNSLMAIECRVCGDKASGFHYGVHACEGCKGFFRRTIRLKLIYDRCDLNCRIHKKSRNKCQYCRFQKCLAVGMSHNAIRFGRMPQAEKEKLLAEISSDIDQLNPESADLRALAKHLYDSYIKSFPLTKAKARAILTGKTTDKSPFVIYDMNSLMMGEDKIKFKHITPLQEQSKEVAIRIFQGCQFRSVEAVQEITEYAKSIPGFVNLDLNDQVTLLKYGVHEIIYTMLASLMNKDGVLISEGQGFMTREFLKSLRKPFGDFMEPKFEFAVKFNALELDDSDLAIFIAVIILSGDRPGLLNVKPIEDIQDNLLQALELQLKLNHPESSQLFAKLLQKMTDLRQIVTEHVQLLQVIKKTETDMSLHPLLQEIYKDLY
Procedure: A human PPARγ nuclear reporter assay was purchased from Indigo Biosciences Inc. (Cat. #IB00101, State College, PA, USA) and was performed according to the manufacturer’s instructions. Briefly, the reporter cells of the assays include a luciferase reporter gene functionally linked to a PPARγ-responsive promoter. Thus, quantifying changes in luciferase expression in the treated reporter cells provides a sensitive surrogate measure of the changes in PPARγ activity. […] A sigmoidal dose–response analysis was performed to determine the half-maximal effective concentration (EC50) values for each TZD (GraphPad Prism 8.4.3, San Diego, CA, USA).

db/db diabetic mice = test system: db/db diabetic mice; design: method as in PMID 11600232, PMID 28656106; details: compared with RGZ and PGZ; cited from earlier work
[3] = test system: patients with type 2 diabetes; details: type II diabetes patients, compared with RZG; cited from earlier work
[4] = Caco-2 permeability assay; type: in vitro ADME; details: human, apical to basolateral
Procedure: as §1, §2, §3

[5] = Caco-2 permeability assay; type: in vitro ADME; details: human, basolateral to apical

Lung Tissue Binding (%) [1]	Plasma Protein Binding (%) ([2]; preterm rabbit plasma, 4 h)	Papp (A–B) (Caco-2 cell monolayers; apical to basolateral, 10 µM, 2 h, without Pgp inhibitor)	Papp with Pgp Inhibitor (A–B) (Caco-2 cell monolayers; apical to basolateral, with Elacridar)	Papp (B–A) (Caco-2 cell monolayers; basolateral to apical, 2 h, without Pgp inhibitor)	Papp with Pgp Inhibitor (B–A) (Caco-2 cell monolayers; basolateral to apical, with Elacridar)	EC50 (human PPARγ)	fraction unbound at 4 h ([2]; both sexes, New Zealand White, preterm rabbit plasma (pooled))	Papp A→B at 2 h, 10 µM ([4]; Caco-2, pH 7.4, with Elacridar (GF120918), concentration not given, with Elacridar, read-out: Papp with Pgp Inhibitor (A–B))	Papp A→B at 2 h, 10 µM ([4]; Caco-2, pH 7.4, 10 µM, 2 h, without Pgp inhibitor, read-out: Papp (A–B))	Papp B→A at 2 h, 10 µM ([5]; Caco-2, pH 7.4, with Elacridar (GF120918), concentration not given, with Elacridar, read-out: Papp with Pgp Inhibitor (B–A) (converted))	Papp B→A at 2 h, 10 µM ([5]; Caco-2, pH 7.4, 2 h, without Pgp inhibitor, read-out: Papp (B–A) (converted))	Structure (SMILES)	plasma glucose and TG reductions (db/db diabetic mice)	plasma triglycerides [3]
91.8 ± 1.8%	98.4 ± 0.3%	22.9 ± 0.3 ×10⁻⁶ cm/s	28.6 ± 1.5 ×10⁻⁶ cm/s	18.7 ± 8 ×10⁻⁶ cm/s	15.8 ± 3.4 ×10⁻⁶ cm/s	602 nM	–	–	–	–	–	Cc1nn(CCOc2ccc(CC3SC(=O)NC3=O)cc2)c(=O)c2ccccc12 (stereo not drawn) [DRF-2546]	superior	–
95.6 ± 2.1%	–	–	–	–	–	–	0.033	12.3 ×10⁻⁶ cm/s	11.8 ×10⁻⁶ cm/s	25.4 ×10⁻⁶ cm/s	15.3 ×10⁻⁶ cm/s	CCc1ccc(CCOc2ccc(CC3SC(=O)NC3=O)cc2)nc1 (stereo not drawn) [PGZ, pioglitazone]	–	significant reduction
